Data as given in patent US9889146B2, “Benzoxaborole compounds and uses thereof” (priority 2012, dated 2018).
≈ marks a conversion by molar mass, not a printed value. Entries after “also recorded” stand apart in the source; their conditions may differ. Where two headings read alike, the source gives them in different places.

Key:
[1] = system: E. coli 1162222 (standard strain) and clinical isolate 1a of E. coli; experiment: Frequency of spontaneous resistance to GSK2251052 in the presence of norvaline; assay type: cell-based, Escherichia coli
Procedure: Clinical strains of Escherichia coli and Proteus mirabilis isolated from the above-described clinical trial study (Table 12), along with other E. coli strains were used to measure the suppression of the emergence of resistant bacterial strains in vitro and to determine the susceptibility of these GSK2251052 resistant bacterial isolates to norvaline.
GSK2251052 and norvaline were prepared at a concentration of 6.4 mg/mL (free base) in 100% DMSO and 100% water respectively, aliquoted in 0.5 mL individual stocks, and stored at −20° C. until required.
Plates were poured and left to cool and solidify.
Cultures were prepared by inoculating broth with a bacterial suspension in saline, prepared from plates derived from individual colonies. For each organism, 100 mL of CAMHB was inoculated with 5 mL of a bacterial suspension with turbidity equivalent to 0.5 McFarland. These cultures were incubated on an orbital shaker at 37° C. until the broth was visibly turbid (approximately 3 hours). Following incubation, cultures were centrifuged at 11,000 g for 10 min at 4° C. The culture media was then decanted and cell pellets were resuspended to an appropriate cell concentration in fresh CAMHB or M9. The ratio of OD625 to CFU/mL used to approximate culture size is 0.1:1.0×10^8. Targeted E. coli cell concentrations were 2×10^9 CFU/mL.
Viable counts were performed to determine the concentration of the initial test inoculum using the following steps: 1) ten-fold serial dilutions of each sample were prepared; 2) three 20 μL aliquots from wells corresponding to 10^−5, […], 10^−7 and 10^−8 dilutions were plated onto the appropriate agar plates; 3) the plates were incubated overnight at 35° C. and counts were performed at the dilution that provided distinguishable colonies; 4) an average of the three aliquots was used to determine the number of colony forming units (CFU) in the original sample.
In addition, 100 μL of each cell suspension was spread onto the surface of plates containing the appropriate multiple of MIC concentration of compound and a control agar plate containing no compound. Plates were incubated at 35° C. in ambient air.
Colonies were counted after 24, 48 and 72 hours. […] In order to confirm their resistance phenotype, the susceptibility of these isolates to the selecting agent was tested by broth microdilution methodology.
The frequency of spontaneous resistance was calculated by dividing the total number of resistant colonies growing on plates containing antibiotic by the total number of colony forming units plated. In order to confirm the resistance phenotype, the MIC of the selecting agent was determined against a representative number of colonies from each antibiotic concentration/strain combination. […] The total number of resistant colonies on the plates was extrapolated from the representative set tested.

[2] = system: Enterobacteriaceae; experiment: organism not typed; assay type: cell-based; conditions: Enterobacteriaceae
[3] = system: P. aeruginosa; experiment: In vitro activity against P. aeruginosa clinical isolates; assay type: cell-based; conditions: for % susceptible: P. aeruginosa, 2,008 clinical isolates, GSK2251052 based on potential susceptible breakpoint of ≦4 μg/mL
Procedure: GSK2251052 was tested for activity against P. aeruginosa, and its activity was compared to other antibiotics of known activity. The results are shown below in Tables 2a and 2b. Of 2,008 clinical isolates tested (from 2009-2010 subjects, of which 40% were from North America) greater than 90% were susceptible to GSK2251052 based on a potential susceptible breakpoint of ≦4 μg/mL.

[4] = system: E. coli isolates from subject E. coli 1; experiment: MIC in M9 minimal media of clinical isolates, subject E. coli 1; assay type: cell-based; conditions: Escherichia coli, read-out: MIC in M9 Minimal Media
Procedure: The E. coli and P. mirabilis strains were cultured on Trypticase Soy Agar/5% blood plates (Becton Dickinson BBL), in cation adjusted Mueller-Hinton II Broth, or in M9 minimal salts (Becton Dickinson) broth containing 0.4% glucose and 200 uM MgSO4. L-Norvaline (Sigma-Aldrich) was prepared at a concentration of 6.4 mg/ml in […], in a final volume of approx 0.5 ml, and stored at −20° C. until required.
Minimum inhibitory concentrations (MICs) were determined using the CLSI (Clinical and Laboratory Standards Institute, formerly NCCLS) recommended broth microdilution methodology [NCCLS, 2003] using defined media.
Throughout this study E. coli and P. mirabilis strains were cultured on Trypticase Soy Agar/5% blood plates, on M9 salts/1.2% Bacto Agar plates, in Cation Adjusted Mueller-Hinton II Broth (CAMHB), or in M9 Minimal Salt Broth containing 0.4% glucose and 200 μM MgSO4. GSK2251052 and norvaline were prepared at a concentration of 6.4 mg/mL (free base) in 100% DMSO and 100% water respectively, aliquoted in 0.5 mL individual stocks, and stored at −20° C. until required.
Minimum inhibitory concentrations (MICs) were determined for each organism using the CLSI (Clinical and Laboratory Standards Institute) recommended broth microdilution methodology [CLSI, 2009].
Strains tested are detailed in Table 15. MICs for norvaline and GSK2251052 could only be determined for E. coli isolates from subject E. coli 1 (Table 16) as M9 Minimal Media could not sustain growth of E. coli isolates from subject E. coli 2 (isolates 2a-2o) or P. mirabilis isolates (isolates 3a-3c) from subject E. coli 3. […] This phenotype is consistent with a mutation in the editing site of LeuRS, which could also be responsible for the concomitant decrease in susceptibility to GSK2251052 observed in isolates from Days 2, 3 and 4 (Table 16).

[5] = system: Klebsiella spp. (WT); experiment: microbe, parasite or virus in culture; assay type: cell-based; conditions: Klebsiella spp. (WT)
[6] = GSK2251052 breakpoint, read-out: susceptibility category of MIC90
[7] = Pseudomonas aeruginosa, P. aeruginosa clinical isolates

Structure (SMILES): NC[C@H]1OB(O)c2c(OCCCO)cccc21 [GSK2251052, (S)-3-aminomethyl-7-(3-hydroxy-propoxy)-3h-benzo[c][1,2]oxaborol-1-ol]
- Frequency of Resistant to GSK2251052 (4 μg/mL) ([1]; CAMH Agar, E. coli Isolate 1a, Norvaline 0 μg/mL): 6.3 × 10^−8
- Frequency of Resistant to GSK2251052 (4 μg/mL) ([1]; CAMH Agar, E. coli Isolate 1a, Norvaline 2 μg/mL): 7.6 × 10^−8
- Frequency of Resistant to GSK2251052 (4 μg/mL) ([1]; CAMH Agar, E. coli Isolate 1a, Norvaline 4 μg/mL): 4.7 × 10^−8
- Frequency of Resistant to GSK2251052 (4 μg/mL) ([1]; CAMH Agar, E. coli Isolate 1a, Norvaline 8 μg/mL): 6.3 × 10^−8
- Frequency of Resistant to GSK2251052 (4 μg/mL) ([1]; CAMH Agar, E. coli Isolate 1a, Norvaline 16 μg/mL): 4.5 × 10^−8
- Frequency of Resistant to GSK2251052 (4 μg/mL) ([1]; CAMH Agar, E. coli Isolate 1a, Norvaline 32 μg/mL): 5.0 × 10^−8
- Frequency of Resistant to GSK2251052 (4 μg/mL) ([1]; CAMH Agar, E. coli Isolate 1a, Norvaline 64 μg/mL): 5.3 × 10^−8
- Frequency of Resistant to GSK2251052 (4 μg/mL) ([1]; CAMH Agar, E. coli baseline strain, Norvaline 0 μg/mL): 1.2 × 10^−7
- Frequency of Resistant to GSK2251052 (4 μg/mL) ([1]; CAMH Agar, E. coli baseline strain, Norvaline 2 μg/mL): 5.0 × 10^−8
- Frequency of Resistant to GSK2251052 (4 μg/mL) ([1]; CAMH Agar, E. coli baseline strain, Norvaline 4 μg/mL): 1.2 × 10^−7
- Frequency of Resistant to GSK2251052 (4 μg/mL) ([1]; CAMH Agar, E. coli baseline strain, Norvaline 8 μg/mL): 6.8 × 10^−8
- Frequency of Resistant to GSK2251052 (4 μg/mL) ([1]; CAMH Agar, E. coli baseline strain, Norvaline 16 μg/mL): 6.1 × 10^−8
- Frequency of Resistant to GSK2251052 (4 μg/mL) ([1]; CAMH Agar, E. coli baseline strain, Norvaline 32 μg/mL): 1.1 × 10^−7
- Frequency of Resistant to GSK2251052 (4 μg/mL) ([1]; CAMH Agar, E. coli baseline strain, Norvaline 64 μg/mL): 9.3 × 10^−8
- Frequency of Resistant to GSK2251052 (4 μg/mL) ([1]; M9 Agar, E. coli Isolate 1a, Norvaline 0 μg/mL): 3.8×10^−7
- Frequency of Resistant to GSK2251052 (4 μg/mL) ([1]; M9 Agar, E. coli Isolate 1a, Norvaline 2 μg/mL): 4.8×10^−8
- Frequency of Resistant to GSK2251052 (4 μg/mL) ([1]; M9 Agar, E. coli Isolate 1a, Norvaline 4 μg/mL): <1.7 × 10^−9
- Frequency of Resistant to GSK2251052 (4 μg/mL) ([1]; M9 Agar, E. coli Isolate 1a, Norvaline 8 μg/mL): <1.7 × 10^−9
- Frequency of Resistant to GSK2251052 (4 μg/mL) ([1]; M9 Agar, E. coli Isolate 1a, Norvaline 16 μg/mL): <1.7 × 10^−9
- Frequency of Resistant to GSK2251052 (4 μg/mL) ([1]; M9 Agar, E. coli Isolate 1a, Norvaline 32 μg/mL): <1.7 × 10^−9
- Frequency of Resistant to GSK2251052 (4 μg/mL) ([1]; M9 Agar, E. coli Isolate 1a, Norvaline 64 μg/mL): <1.7 × 10^−9
- Frequency of Resistant to GSK2251052 (4 μg/mL) ([1]; M9 Agar, E. coli baseline strain, Norvaline 0 μg/mL): 4.9×10^−8
- Frequency of Resistant to GSK2251052 (4 μg/mL) ([1]; M9 Agar, E. coli baseline strain, Norvaline 2 μg/mL): 2.8 × 10^−8
- Frequency of Resistant to GSK2251052 (4 μg/mL) ([1]; M9 Agar, E. coli baseline strain, Norvaline 4 μg/mL): 2.0 × 10^−8
- Frequency of Resistant to GSK2251052 (4 μg/mL) ([1]; M9 Agar, E. coli baseline strain, Norvaline 8 μg/mL): 6.0 × 10^−8
- Frequency of Resistant to GSK2251052 (4 μg/mL) ([1]; M9 Agar, E. coli baseline strain, Norvaline 16 μg/mL): 3.0 × 10^−9
- Frequency of Resistant to GSK2251052 (4 μg/mL) ([1]; M9 Agar, E. coli baseline strain, Norvaline 32 μg/mL): <1.0 × 10^−9
- Frequency of Resistant to GSK2251052 (4 μg/mL) ([1]; M9 Agar, E. coli baseline strain, Norvaline 64 μg/mL): <1.0 × 10^−9
- decrease in the frequency of resistance to GSK2251052 ([1]; M9 minimal media, E. coli baseline strain, no norvaline versus >32 μg/mL): ≥ 50 fold
- decrease in the frequency of spontaneous resistance ([1]; M9 minimal media, E. coli clinical isolate from subject E. coli 1, no norvaline versus >4 μg/mL): over 200 fold
- effect of norvaline on frequency of resistance in rich media ([1]; both E. coli strains, rich media, GSK2251052 4 μg/mL, norvaline up to 64 μg/mL): remained the same; also recorded: did not change the frequency of spontaneous resistance
- frequency of resistance to GSK2251052 ([1]; minimal media, E. coli clinical isolate 1a, norvaline ≧4 μg/mL): < 1.7×10^−9
- reduction of the appearance of mutants ([1]; minimal media, baseline E. coli strain, norvaline at 8 μg/mL): 10 fold
- frequency of resistance to GSK2251052 ([1]; minimal media, baseline E. coli strain, norvaline ≧32 μg/mL): < 1×10^−9
- MIC90 ([2]; 2029 isolates, read-out: MIC90): 1 µg/mL (≈ 4.22 µM)
- susceptibility category of MIC90 [2, 6]: < 4 µg/mL
- MIC Range ([3]; P. aeruginosa clinical isolates): 0.06 to 64 µg/mL
- % susceptible [3]: greater than 90%
- % susceptible ([3]; listed as GSK2250152): 92.8%
- MIC50 [3, 7]: 2 µg/mL (≈ 8.44 µM)
- MIC90 [3, 7]: 4 µg/mL (≈ 16.9 µM)
- MIC ([4]; 24 h, Isolate 1a, Blood, Day 1): 1 µg/mL (≈ 4.22 µM)
- MIC ([4]; 24 h, Isolate 1b, Urine, Day 1): 1 µg/mL (≈ 4.22 µM)
- MIC ([4]; 48 h, Isolate 1c, Blood, Day 2): 32 µg/mL (≈ 135 µM)
- MIC ([4]; 96 h, Isolate 1e, Blood, Day 4): 32 µg/mL (≈ 135 µM)
- MIC ([4]; Isolate 1d, Blood, Day 3): 32 µg/mL (≈ 135 µM)
- MIC90 ([5]; 159 isolates, read-out: MIC90): 1 µg/mL (≈ 4.22 µM)
- MIC90 [5, 6]: < 4 µg/mL
